Source: patent US11571484B2, “Compositions that target tumor-associated macrophages and methods of use therefor” (Sanford Burnham Prebys Medical Discovery Institute, priority 2017, dated 2023)
Ends that are not written are not given here. FAM = 5(6)-carboxyfluorescein; Ahx = NCCCCCC(=O)O

Assays:
recombinant mouse CD163 = target: T1, recombinant mouse CD163 (Mus musculus, UniProt Q2VLH6); experiment: Fluorescence anisotropy assay with recombinant CD163; assay type: binding; conditions: 50 nM FAM peptide, 1 μM protein, 25 °C
T1 construct: purchased R&D Systems 7435-CD-050
T1 sequence (Q2VLH6 39-1121): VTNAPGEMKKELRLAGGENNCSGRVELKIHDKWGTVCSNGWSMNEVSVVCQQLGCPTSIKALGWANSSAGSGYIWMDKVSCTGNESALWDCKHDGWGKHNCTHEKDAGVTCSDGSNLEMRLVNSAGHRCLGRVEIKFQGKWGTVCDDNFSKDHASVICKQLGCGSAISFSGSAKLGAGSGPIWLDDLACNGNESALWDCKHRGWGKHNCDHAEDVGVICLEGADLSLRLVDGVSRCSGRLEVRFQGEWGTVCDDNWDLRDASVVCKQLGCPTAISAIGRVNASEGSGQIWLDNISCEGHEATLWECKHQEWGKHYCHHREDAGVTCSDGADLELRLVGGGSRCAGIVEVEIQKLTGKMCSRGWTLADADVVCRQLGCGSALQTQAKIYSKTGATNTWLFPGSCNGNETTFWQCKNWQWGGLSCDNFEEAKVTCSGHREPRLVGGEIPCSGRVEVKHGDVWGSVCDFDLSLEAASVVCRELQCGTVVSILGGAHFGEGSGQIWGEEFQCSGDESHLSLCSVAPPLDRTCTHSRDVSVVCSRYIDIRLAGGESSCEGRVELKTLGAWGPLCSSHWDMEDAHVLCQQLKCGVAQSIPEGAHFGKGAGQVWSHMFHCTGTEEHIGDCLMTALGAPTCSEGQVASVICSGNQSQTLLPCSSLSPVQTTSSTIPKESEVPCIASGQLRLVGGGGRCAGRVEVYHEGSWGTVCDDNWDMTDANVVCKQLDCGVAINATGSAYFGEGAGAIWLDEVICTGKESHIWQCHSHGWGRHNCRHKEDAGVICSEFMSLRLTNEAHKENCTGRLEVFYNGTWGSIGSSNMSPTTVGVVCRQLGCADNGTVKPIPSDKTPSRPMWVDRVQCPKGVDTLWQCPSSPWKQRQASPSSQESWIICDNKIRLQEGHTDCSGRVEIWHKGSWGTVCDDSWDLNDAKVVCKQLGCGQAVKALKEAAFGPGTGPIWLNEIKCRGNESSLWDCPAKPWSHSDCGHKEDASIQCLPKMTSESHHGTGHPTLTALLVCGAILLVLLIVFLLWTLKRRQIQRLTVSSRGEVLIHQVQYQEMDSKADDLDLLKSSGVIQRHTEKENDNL
Description: The recombinant mouse macrophage mannose receptor rmMMR/CD206 (R&D Systems, catalog number: 2535-MM-050) and recombinant mouse CD163 (R&D Systems, catalog number: 7435-CD-050) were reconstituted at 1 mg/ml in IB, aliquoted and stored at −20° C. To generate linearized version of cyclic FAM-UNO peptide, the peptide at 1 mM concentration was preincubated for 24 h at room temperature in a dark place with 3 mM DTT and diluted with IB 2×10^5 times before the FA assay. The control experiment with FAM-CPMTDNE peptide (FIG. 22) was performed to rule out the possibility of disulphide bond formation, which could affect the binding properties of linear peptides. […]
Fluorescence anisotropy was also carried out using recombinant human macrophage mannose receptor rhMMR/CD206 to determine whether UNO peptide interactions with mouse CD206 carried over to human CD206. […]
In all experiments, FA signal measurements were done under pseudo first-order conditions with 50 nM singly labelled FAM peptides and 1 μM proteins. […] Assays were carried out in kinetic mode in a total volume of 30 μl at 25° C. on the PHERAstar (BMG Labtech, Germany) microplate reader using an optical module with excitation and emission filters of 485 nm (slit 10 nm) and 520 nm (slit 10 nm), respectively. […] FA signals at time t after initiation of binding reaction was calculated as parameters r(t) from the equation: […]

MEMs in MCF-7 tumors = experiment: Free peptide homing and immunofluorescence in the orthotopic MCF-7 breast tumor model; assay type: in vivo, mouse; conditions: 30 nmoles i.v., 2 h
Description: A, Thirty nmoles of FAM-UNO were injected intravenously in mice bearing MCF-7 tumors, 21 days after orthotopic inoculation of 5×10^6 cells. […] All images were taken with the same imaging conditions. Scale bar: 100 μm and 50 μm (blow up). […] The tumor tissue from panel A was analyzed by immunofluorescence using rabbit anti-FAM (green), rat anti-HLA ABC (red) and counterstained with DAPI (blue). Scale bar: 50 μm. C, MCF-7 tumors are leaky. Tumor sections were immunostained for endogenous mouse IgG and counterstained with DAPI using the same staining and imaging conditions as in FIG. 17. Scale bar: 100 μm. Representative images from n=3 mice.
Mice were used for homing studies two weeks later.

MEMs in WT-GBM tumors = experiment: Free peptide homing and immunofluorescence in the orthotopic WT-GBM glioblastoma model; conditions: 30 nmoles i.v., 2 h
Description: Thirty nmoles of FAM-UNO or FAM-control peptide were injected intravenously into mice and allowed to circulate for 2 h. Mice were then sacrificed and tumor and tissues were analyzed by immunofluorescence using rabbit anti-FAM (green) and rat anti-CD206 (red) antibodies, and counterstained with DAPI. […] The metastases were induced by i.v. inoculation of B16F10 melanoma cells. […] Blue: DAPI. Representative fields from multiple sections (n≥3) prepared from at least 3 tumors are shown. Scale bar: 50 μm. Images shown are representative fields from multiple sections (≥3) prepared from at least 3 tumors (n≥3 mice). The graphs show mean+SEM of FAM signal quantified as described in Materials and Methods.
Tumor models were induced according to protocols approved by the Estonian Ministry of Agriculture, Committee of Animal Experimentation (permit #48). For the 4T1 breast model, 8-week old female Balb/c mice were injected in the mammary fat pad with 10^6 cells dispersed in 50 μL of PBS. For homing studies, mice were used 10 days later, when the tumor had reached ˜150 mm^3. For MCF-7 breast model, 8-week old female nude mice were implanted with an estrogen pellet, and 1 week later inoculated with 5×10^6 MCF-7 cells in 100 μL of cold Matrigel (BD Biosciences, CA, USA). Mice were used for homing studies three weeks later (tumor volume˜150 mm^3). For the metastatic gastric carcinoma, 10^6 MKN45-P cells in PBS were injected intraperitoneally in 8-week old female nude mice. Mice were used for homing studies two weeks later. For the metastatic melanoma model, 2×10^5 B16F10 cells were injected intravenously in 100 μL of PBS in C57 BL6 mice. The mice were used for homing studies 10 days after. For the angiogenic glioblastoma model, WT-GBM 24, 7×10^5 cells were stereotactically injected in the right striatum of Fox/Nu mice 2 mm lateral and posterior of bregma of 2.5 mm deep. The mice were used for homing studies 6-7 days after the injection.
For free peptide homing studies, mice were injected intravenously with 30 nmoles of FAM-peptides in 100 μL of PBS. For nanoparticle homing studies-FAM-UNO—NP-PTX-, mice were injected intravenously in mice bearing MCF-7 breast tumors with 1 mg of Polymer in 100 μL pf PBS and allowed to circulate for 6 h. For tissue collection, the mice were anesthetized and the tissues collected and immediately placed in 4% cold PFA and left overnight at 4-C. Tissues were washed with PBS for 2 h at room temperature and cryoprotected with sucrose 15% at 4-C overnight and then in sucrose 30% at 4·C overnight. […] FAM was detected using Rabbit anti-FITC (Invitrogen, CA, USA. Catalog # A-889) at a dilution of 1/100 and using Alexa Fluor-546 anti-rabbit antibody (Invitrogen, Ca, USA. Catalog # A-11035) at a dilution of 1/200.

Row | change in fluorescence anisotropy with CD163 (recombinant mouse CD163) | Substance | accumulation in MEMs (MEMs in MCF-7 tumors) | targeting of tumor cells of human origin (HLA ABC+) (MEMs in MCF-7 tumors) | accumulation in tumor (MEMs in WT-GBM tumors) | signal in normal brain parenchyma (MEMs in WT-GBM tumors)
1 | no change in anisotropy | FAM-CSPGAK: FAM-labeled linear CSPGAK (SEQ ID NO: 6) (not fully specified; FAM label) |  |  |  | 
2 |  | FAM-UNO: FAM-labeled UNO peptide CSPGAKVRC (SEQ ID NO: 1); 5(6)-carboxyfluorescein with 6-aminohexanoic acid spacer at the N-terminus ({FAM-Ahx}-CSPGAKVRC; cysteine pairing not given here) | selectively accumulated in MEMs | did not target the tumor cells of human origin | accumulated in the tumor areas containing MEMs | No signal
